From patent US20210198201A1, “Orally Active Melanocortin Receptor-4 Compounds” (Palatin Technologies, Inc., priority 2018, published 2021)

How the values were obtained:
MC1r = biological target: T1, MC1r (Homo sapiens, UniProt Q01726); assay: Competitive inhibition binding assay, MC1r; conditions: binding studies
T1 construct: expressed in transfected cells; host or cells: HEK-293 (membrane homogenates)
Method: (§1) A competitive inhibition binding assay is performed using membrane homogenates prepared from HEK-293 cells that express recombinant hMC1ra, hMC4r, hMC3r, or hMC5r, and from B16-F10 mouse melanoma cells (containing endogenous MC1r). In the examples that follow, all values are for human recombinant receptors unless otherwise noted. Assays are performed in 96 well GF/B Millipore multiscreen filtration plates (MAFB NOB10) pre-coated with 0.5% bovine serum albumin (Fraction V). […] After incubation for 60 to 90 minutes at 37° C., the assay mixture is filtered and the membranes washed three times with ice-cold buffer. Filters are dried and counted in a gamma counter for bound radioactivity.
(§2) Maximal specific binding (100%) is defined as the difference in radioactivity (cpm) bound to cell membranes in the absence and presence of 1 μM NDP-α-MSH. […] Each assay is conducted in duplicate or triplicate and the actual mean values are described, with results less than 0% reported as 0%. Ki values for test compounds are determined using Graph-Pad Prism® curve-fitting software.

hMC3r = biological target: T2, hMC3r (Homo sapiens, UniProt P41968); assay: Binding of iodine-125 labeled NDP-α-MSH, human recombinant CHO cells, hMC3r
T2 construct: expressed in transfected cells; host or cells: CHO
Method: (§3) Melanocortin receptor binding and function of Compound 7.1 was tested. Ki binding values (nM) were calculated utilizing the percent inhibit of the binding of iodine-125 labeled NDP-α-MSH against B16-F1 cells for mMC1r, and human recombinant CHO cells for hMC3r, hMC4r and hMC5r, with the inhibition constant calculated using the Cheng Prusoff equation. Functional results (EC50 and efficacy) were calculated utilizing cAMP assays with NDP-α-MSH for mMC1r, hMC3r and hMC4r, ACTH for hMC2r, and α-MSH for hMC5r for agonist measures, with the same target cells for melanocortin receptors mMC1r, hMC3r, hMC4r and hMC5r, and human recombinant Cloudman M3 cells for hMC2r.

hMC5r = biological target: T3, hMC5r (Homo sapiens, UniProt P33032); assay: cAMP assay hMC5r (human recombinant CHO cells, α-MSH reference); format: cell-based
T3 construct: expressed in transfected cells; host or cells: CHO
Method: as §3

C57BL/6 male DIO mice = assay: Body weight and food intake in vivo study in diet induced obese mice; set-up: species or system mouse
Method: Compound 7.1 was assessed in a body weight and food intake in vivo study in diet induced obese […] mice. C57BL/6 male DIO mice were utilized, that were 17 weeks of age on arrival. Animals were pre-conditioned on a high-fat diet for 11 weeks by Jackson Labs. […] Animals were single housed within a limited access rodent facility, and provided ad libitum with a commercial rodent diet and free access to drinking water. Animals were randomized into five groups, a vehicle group, three dose levels of compound 7.1 (3 mg/kg, 10 mg/kg and 30 mg/kg), and Peptide A, a positive control cyclic peptide of the formula Ac-Arg-cyclo(Orn-Asn-D-Phe-Arg-Trp-Glu)-NH2. Following three days of sham dosing, animals were dosed for three days, with vehicle or Compound 7.1 dosed orally once daily at within one hour of lights out in the AM, and Peptide A dosed by subcutaneous injection twice daily within one hour before lights out and six hours after lights out. Body weights were measured one hour prior to lights out, and feed weights were measured both one hour prior to lights out and six hours post lights out.
*p<0.05 vs. sham (vehicle control) using two-way ANOVA followed by Dunnett's post-test.
**p<0.01 vs sham (vehicle control) using two-way ANOVA followed by Dunnett's post-test.

[1] = system: Male mice homozygous for the obese spontaneous mutation, Lep^ob; assay: Oral administration in leptin-deficient obese mice, body weight; format: in vivo, mouse; conditions: 30 mg/kg twice daily for six days
Method: Male mice homozygous for the obese spontaneous mutation, Lep^ob, with resulting leptin protein deficiency, were individually housed with free access to feed and drinking water. All animals were sham-dosed twice daily for five days prior to initial drug administration, utilizing a vehicle dose of 3.2% mannitol and […] tris(hydroxymethyl)aminomethane at pH 7.4. On day 6 a cohort of the mice received compound 7.1 dissolved into the vehicle twice daily for six consecutive days at a dose of 30 mg/kg. Body weight of animals was measured daily, with data analyzed as the percent change from baseline of each individual animal, where baseline was defined as the average weight during the first three days of sham dosing. The averaged percent change from baseline of a vehicle group was then subtracted from each value to correct for continued weight gain or other study-wide factors. The change in body weight is shown in FIG. 3 starting on study day 1, the first day of administration of compound 7.1.

C57Bl/6 DIO mice = assay: Oral administration, feed intake and body weight in C57Bl/6 DIO mice (comparison with MC4r knockout); format: in vivo, mouse
Method: Feed intake and body weight was evaluated in MCr4 knockout (MC4r−/−) mice (Jackson Laboratories) compared to C57Bl/6 DIO mice. […] Feed weights were taken at time 0, 2, 6 and 24 hours post lights out. […] The change in body weight is shown in FIG. 4 starting on study day 5, the first day of administration of compound 7.1. […] Additionally, there was a statistically significant mean difference, 2.8%, 95% Cl (1.281, 4.253), and p value <0.0001 between DIO mice receiving compound 7.1 and MC4r (−/−) receiving compound 7.1.

MC4r = MC4r (Homo sapiens, UniProt P32245); assay: Competitive inhibition binding assay, MC4r; set-up: expressed in transfected cells; host or cells: HEK-293 (membrane homogenates); conditions: binding studies
Method: as §1, §2
Competitive Binding Assay Using Eu-NDP-α-MSH. Alternatively, a competitive inhibition binding assay is performed employing Eu-NDP-α-MSH (PerkinElmer Life Sciences catalog No. AD0225) with determination by time-resolved fluorometry (TRF) of the lanthanide chelate. […] After incubation for 90 minutes at 37° C., the reaction was stopped by filtration over Acro Well 96-well filter plates (Pall Life Sciences). The filter plates were washed 4 times with 200 μL of ice-cold phosphate-buffered saline. DELFIA Enhancement solution (PerkinElmer Life Sciences) was added to each well. The plates were incubated on a shaker for 15 minutes and read at 340 nm excitation and 615 nm emission wavelengths. Each assay was conducted in duplicate and mean values were utilized. Ki values were determined by curve-fitting with Graph-Pad Prism® software using a one-site fixed-slope competition binding model.

T1 sequence (Q01726 whole entry): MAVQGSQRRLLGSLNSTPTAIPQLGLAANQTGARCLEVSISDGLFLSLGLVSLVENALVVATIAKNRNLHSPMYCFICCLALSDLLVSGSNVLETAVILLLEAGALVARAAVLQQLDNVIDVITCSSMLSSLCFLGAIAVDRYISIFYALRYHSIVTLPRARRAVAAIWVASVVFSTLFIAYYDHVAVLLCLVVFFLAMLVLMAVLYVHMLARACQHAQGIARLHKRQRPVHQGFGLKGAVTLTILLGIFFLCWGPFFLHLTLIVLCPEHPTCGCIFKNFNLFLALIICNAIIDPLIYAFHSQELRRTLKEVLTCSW
Sequence of MC4r (P32245 whole entry): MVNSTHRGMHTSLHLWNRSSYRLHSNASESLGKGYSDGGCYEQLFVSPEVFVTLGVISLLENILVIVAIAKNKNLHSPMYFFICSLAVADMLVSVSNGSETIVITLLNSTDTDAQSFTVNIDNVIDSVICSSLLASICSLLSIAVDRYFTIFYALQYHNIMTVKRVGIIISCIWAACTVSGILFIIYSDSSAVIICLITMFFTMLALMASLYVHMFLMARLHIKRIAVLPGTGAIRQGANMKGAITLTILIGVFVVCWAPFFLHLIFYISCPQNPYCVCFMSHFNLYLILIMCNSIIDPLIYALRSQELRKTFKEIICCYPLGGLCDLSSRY
T2 sequence (P41968 whole entry): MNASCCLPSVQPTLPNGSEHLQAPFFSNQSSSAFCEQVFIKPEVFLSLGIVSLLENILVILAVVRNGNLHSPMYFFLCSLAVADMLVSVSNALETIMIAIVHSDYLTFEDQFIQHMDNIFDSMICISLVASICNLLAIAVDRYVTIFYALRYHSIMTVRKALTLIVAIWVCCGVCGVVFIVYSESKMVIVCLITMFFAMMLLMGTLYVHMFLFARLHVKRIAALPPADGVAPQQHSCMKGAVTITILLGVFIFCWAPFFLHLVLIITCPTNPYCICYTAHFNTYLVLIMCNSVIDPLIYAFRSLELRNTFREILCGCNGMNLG
T3 sequence (P33032 whole entry): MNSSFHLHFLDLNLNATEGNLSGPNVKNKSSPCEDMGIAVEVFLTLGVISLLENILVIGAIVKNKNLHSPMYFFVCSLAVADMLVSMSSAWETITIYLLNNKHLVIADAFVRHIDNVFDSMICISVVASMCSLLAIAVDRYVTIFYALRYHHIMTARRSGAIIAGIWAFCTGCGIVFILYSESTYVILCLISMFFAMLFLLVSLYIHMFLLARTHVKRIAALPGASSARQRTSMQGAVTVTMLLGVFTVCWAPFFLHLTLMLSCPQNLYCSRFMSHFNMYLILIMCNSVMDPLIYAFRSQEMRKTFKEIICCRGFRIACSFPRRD

SMILES: CC(=O)N1CCC(N(CC(C)C)N2CCN(C(=O)[C@@H](Cc3ccc(Cl)cc3)NC(=O)C(C)(C)N)CC2)CC1 [Compound 7.1, N-[(1R)-2-[4-[(1-acetyl-4-piperidyl)-isobutyl-amino]piperazin-1-yl]-1-[(4-chlorophenyl)methyl]-2-oxo-ethyl]-2-amino-2-methyl-propanamide]
- Ki (MC1r): 200 nM
- Ki (hMC3r): 1300 nM
- EC50 (hMC5r): > 1000 nM
- effect on body weight (in words) (C57BL/6 male DIO mice; 3 mg/kg, day 3): body weight loss
- effect on feed intake at 24 hours post lights out (in words) (C57BL/6 male DIO mice; 30 mg/kg, entirety of the study, compared with sham animals): significantly inhibited feed intake
- effect on body weight (in words) (C57BL/6 male DIO mice; daily treatment at 10 mg/kg and 30 mg/kg, day 1 to 3): significant body weight loss
- decrease in body weight compared to vehicle controls [1]: 4.8%
- effect on body weight vs own vehicle group (in words) (C57Bl/6 DIO mice; 30 mg/kg two daily administrations via oral gavage): significant body weight loss
- food consumption vs vehicle only (in words) (C57Bl/6 DIO mice; 6 and 24 hour timepoints, 30 mg/kg twice daily oral gavage): significantly decreased
- Ki (MC4r): 5 nM
